Consider 25 compounds from patent publication US9624229B2, “Pyrimidine-2-amine compounds and their use as inhibitors of JAK kinases” (Rigel Pharmaceuticals, Inc., priority 2008, dated 2017).

Some results are limits rather than exact numbers.

In the assay the target is Ba/F3 V617F cells (Homo sapiens, UniProt O60674, V617F, cells depend on it). In words: Proliferation assay (Cell Titer-Glo, 72 h) utilizing Ba/F3 V617F cells. The assay is classed as cell-based, mouse. To be noted: Ba/F3 V617F cells, proliferation, level of activity given as class symbol, read-out: IC50 (the source's name). Summed up: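 Readout is CellTiter-Glo luminescence after 72 h at 37 °C, giving IC50. Cells: Ba/F3 V617F, 1×10^5 cells/mL in RPMI with 10% FBS, treated in duplicate with 3-fold dilution series made from 5 mM DMSO stock, 1:250 in 5% FBS medium, added at 2×.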
Chain of Ba/F3 V617F cells (O60674 whole entry V617F): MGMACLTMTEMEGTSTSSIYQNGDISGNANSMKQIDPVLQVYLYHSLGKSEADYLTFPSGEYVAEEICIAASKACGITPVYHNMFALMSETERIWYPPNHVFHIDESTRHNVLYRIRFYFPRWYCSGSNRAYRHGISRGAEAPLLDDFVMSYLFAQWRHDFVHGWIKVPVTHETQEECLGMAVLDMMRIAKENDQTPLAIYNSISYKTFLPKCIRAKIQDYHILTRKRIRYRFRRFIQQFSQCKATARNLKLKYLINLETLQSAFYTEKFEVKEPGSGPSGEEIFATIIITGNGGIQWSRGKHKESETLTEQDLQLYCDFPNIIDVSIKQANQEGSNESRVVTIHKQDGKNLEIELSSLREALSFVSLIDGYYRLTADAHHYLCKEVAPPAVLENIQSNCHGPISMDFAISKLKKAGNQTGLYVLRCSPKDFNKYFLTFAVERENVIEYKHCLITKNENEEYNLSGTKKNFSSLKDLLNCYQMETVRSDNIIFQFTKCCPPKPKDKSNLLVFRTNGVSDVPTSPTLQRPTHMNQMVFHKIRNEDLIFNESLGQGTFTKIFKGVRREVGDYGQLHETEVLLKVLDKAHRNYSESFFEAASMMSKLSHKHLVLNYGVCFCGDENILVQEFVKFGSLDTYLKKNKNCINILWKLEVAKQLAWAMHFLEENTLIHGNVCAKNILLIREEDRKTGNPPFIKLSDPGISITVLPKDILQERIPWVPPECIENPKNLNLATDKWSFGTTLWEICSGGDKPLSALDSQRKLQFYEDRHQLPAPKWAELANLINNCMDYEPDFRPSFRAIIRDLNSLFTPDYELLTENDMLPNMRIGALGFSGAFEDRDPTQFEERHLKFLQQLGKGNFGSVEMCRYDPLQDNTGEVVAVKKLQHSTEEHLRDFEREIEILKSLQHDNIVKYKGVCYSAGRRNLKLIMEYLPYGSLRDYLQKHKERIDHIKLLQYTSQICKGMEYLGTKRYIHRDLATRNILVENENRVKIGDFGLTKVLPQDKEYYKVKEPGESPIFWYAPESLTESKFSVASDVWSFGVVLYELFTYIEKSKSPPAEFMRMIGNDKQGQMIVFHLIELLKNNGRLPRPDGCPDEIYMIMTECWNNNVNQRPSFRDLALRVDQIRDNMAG
For the compound `CN1C[C@@H]2C[C@H]1CN2c1ccc(Nc2nccc(-c3ccc4c(c3)SCC(=O)N4)n2)cc1` [compound 239, 4-(3-oxo-3,4-dihydro-2H-benzo[b][1,4]thiazin-7-yl)-N-(4-((1S,4S)-5-methyl-2,5-diazabicyclo[2.2.1]heptan-2-yl)phenyl)pyrimidin-2-amine], the GI50 is < 1000 nM. To `Cc1cc(Nc2nccc(-c3ccc4c(c3)OC(C)(C)C(=O)N4)n2)ccc1N1C[C@@H]2C[C@H]1CN2C` [compound 240, 4-(2,2-dimethyl-3-oxo-3,4-dihydro-2H-benzo[b][1,4]oxazin-7-yl)-N-(3-methyl-4-((1S,4S)-5-methyl-2,5-diazabicyclo[2.2.1]heptan-2-yl)phenyl)pyrimidin-2-amine] belongs < 1000 nM. In the case of `Cc1cc(Nc2nccc(-c3ccc4c(c3)OC(C)(C)C(=O)N4)n2)ccc1N1C[C@@H]2C[C@H]1CN2S(C)(=O)=O` [compound 241, 4-(2,2-dimethyl-3-oxo-3,4-dihydro-2H-benzo[b][1,4]oxazin-7-yl)-N-(3-methyl-4-((1S,4S)-5-methylsulfonyl-2,5-diazabicyclo[2.2.1]heptan-2-yl)phenyl)pyrimidin-2-amine] it was < 1000 nM; in that of `Cc1cc(Nc2nccc(-c3ccc4c(c3)CCCC(=O)N4)n2)ccc1N1C[C@@H]2C[C@H]1CN2C` [compound 242, 4-(2-oxo-2,3,4,5-tetrahydro-1H-benzo[b]azepin-7-yl)-N-(3-methyl-4-((1S,4S)-5-methyl-2,5-diazabicyclo[2.2.1]heptan-2-yl)phenyl)pyrimidin-2-amine], < 1000 nM.

For the compound `Cc1cc(Nc2nccc(-c3ccc4c(c3)CCCC(=O)N4)n2)ccc1N1C[C@@H]2C[C@H]1CN2S(C)(=O)=O` [compound 243, 4-(2-oxo-2,3,4,5-tetrahydro-1H-benzo[b]azepin-7-yl)-N-(3-methyl-4-((1S,4S)-5-methylsulfonyl-2,5-diazabicyclo[2.2.1]heptan-2-yl)phenyl)pyrimidin-2-amine], the GI50 is < 1000 nM. In the case of `Cc1cc(Nc2nccc(-c3ccc4c(c3)OC(C)(C)C(=O)N4)n2)ccc1N1CCN2C(C1)[C@H]1CC[C@@H]2C1` (stereo partly drawn) [compound 244, 4-(2,2-dimethyl-3-oxo-3,4-dihydro-2H-benzo[b][1,4]oxazin-7-yl)-N-(3-methyl-4-((6R,9S)-6,9-methanooctahydro-1H-pyrido[1,2-a]pyrazin-2-yl)phenyl)pyrimidin-2-amine] it was < 1000 nM; in that of `Cc1cc(Nc2nccc(-c3ccc(N4CCOCC4)nc3)n2)ccc1N1CCN2C(C1)[C@H]1CC[C@@H]2C1` (stereo partly drawn) [compound 245, 4-(6-(morpholin-4-yl)pyridin-3-yl)-N-(3-methyl-4-((6R,9S)-6,9-methanooctahydro-1H-pyrido[1,2-a]pyrazin-2-yl)phenyl)pyrimidin-2-amine], < 1000 nM; in that of `Cc1cc(Nc2nccc(-c3cnc4c(c3)OC(C)(C)C(=O)N4)n2)ccc1N1C[C@@H]2C[C@H]1CN2C(C)C` [compound 246, 4-(2,2-dimethyl-3-oxo-3,4-dihydro-2H-pyrido[3,2-b][1,4]oxazin-7-yl)-N-(3-methyl-4-((1S,4S)-5-(1-methylethyl)-2,5-diazabicyclo[2.2.1]heptan-2-yl)phenyl)pyrimidin-2-amine], < 1000 nM. To `Cc1cc(Nc2nccc(-c3cnc4c(c3)OC(C)(C)C(=O)N4)n2)ccc1N1C[C@@H]2C[C@H]1CN2C1CC1` [compound 247, 4-(2,2-dimethyl-3-oxo-3,4-dihydro-2H-pyrido[3,2-b][1,4]oxazin-7-yl)-N-(3-methyl-4-((1S,4S)-5-cyclopropyl-2,5-diazabicyclo[2.2.1]heptan-2-yl)phenyl)pyrimidin-2-amine] belongs < 1000 nM. For `CN1C[C@@H]2C[C@H]1CN2c1ccc(Nc2nccc(-c3cnc4c(c3)OC(C)(C)C(=O)N4)n2)cc1Cl` [compound 248, 4-(2,2-dimethyl-3-oxo-3,4-dihydro-2H-pyrido[3,2-b][1,4]oxazin-7-yl)-N-(3-chloro-4-((1S,4S)-5-methyl-2,5-diazabicyclo[2.2.1]heptan-2-yl)phenyl)pyrimidin-2-amine], the GI50 is < 1000 nM. Turning to `CC1(C)Oc2cc(-c3ccnc(Nc4ccc(N5C[C@@H]6C[C@H]5CN6S(C)(=O)=O)c(Cl)c4)n3)cnc2NC1=O` [compound 249, 4-(2,2-dimethyl-3-oxo-3,4-dihydro-2H-pyrido[3,2-b][1,4]oxazin-7-yl)-N-(3-chloro-4-((1S,4S)-5-(methylsulfonyl)-2,5-diazabicyclo[2.2.1]heptan-2-yl)phenyl)pyrimidin-2-amine], the GI50 is < 1000 nM. In the case of `Cc1cc(Nc2nccc(-c3cnc4c(c3)OC(C)(C)C(=O)N4)n2)ccc1N1C[C@@H]2C[C@H]1CN2C1CCCC1` [compound 250, 4-(2,2-dimethyl-3-oxo-3,4-dihydro-2H-pyrido[3,2-b][1,4]oxazin-7-yl)-N-(3-methyl-4-((1S,4S)-5-cyclopentyl-2,5-diazabicyclo[2.2.1]heptan-2-yl)phenyl)pyrimidin-2-amine] it was < 1000 nM; in that of `CC(=O)N1C[C@@H]2C[C@H]1CN2c1ccc(Nc2nccc(-c3cnc4c(c3)OC(C)(C)C(=O)N4)n2)cc1C` [compound 251, 4-(2,2-dimethyl-3-oxo-3,4-dihydro-2H-pyrido[3,2-b][1,4]oxazin-7-yl)-N-(3-methyl-4-((1S,4S)-5-acetyl-2,5-diazabicyclo[2.2.1]heptan-2-yl)phenyl)pyrimidin-2-amine], < 1000 nM.

As for `Cc1cc(Nc2nccc(-c3cnc4c(c3)OC(C)(C)C(=O)N4)n2)ccc1N1CCN2CCC1C2` (stereo not shown) [compound 252, 4-(2,2-dimethyl-3-oxo-3,4-dihydro-2H-pyrido[3,2-b][1,4]oxazin-7-yl)-N-(3-methyl-4-(1,4-diazabicyclo[3.2.1]octan-4-yl)phenyl)pyrimidin-2-amine], the GI50 was < 1000 nM. To `Cc1cc(Nc2nccc(-c3cnc(N)c(CCCC(=O)OC(C)C)c3)n2)ccc1N1C[C@@H]2C[C@H]1CN2C` [compound 253, 4-(5-(1-methylethoxy)carbonylpropyl-6-aminopyridin-3-yl)-N-(3-methyl-4-((1S,4S)-5-methyl-2,5-diazabicyclo[2.2.1]heptan-2-yl)phenyl)pyrimidin-2-amine] belongs < 1000 nM; to `Cc1cc(Nc2nccc(-c3ccc(N4CCOCC4)nc3)n2)ccc1N1C[C@@H]2C[C@H]1CN2C1CC1` [compound 254, 4-(6-(morpholin-4-yl)pyridin-3-yl)-N-(3-methyl-4-((1S,4S)-5-cyclopropyl-2,5-diazabicyclo[2.2.1]heptan-2-yl)phenyl)pyrimidin-2-amine], < 1000 nM. In the case of `CN1C[C@@H]2C[C@H]1CN2c1ccc(Nc2nccc(-c3ccc(N4CCOCC4)nc3)n2)cc1Cl` [compound 255, 4-(6-(morpholin-4-yl)pyridin-3-yl)-N-(3-chloro-4-((1S,4S)-5-methyl-2,5-diazabicyclo[2.2.1]heptan-2-yl)phenyl)pyrimidin-2-amine] it was < 1000 nM; in that of `Cc1cc(Nc2nccc(-c3ccnc(C(F)(F)F)c3)n2)ccc1N1C[C@@H]2C[C@H]1CN2C` [compound 256, 4-(2-(trifluoromethyl)pyridin-4-yl)-N-(3-methyl-4-((1S,4S)-5-methyl-2,5-diazabicyclo[2.2.1]heptan-2-yl)phenyl)pyrimidin-2-amine], < 1000 nM; in that of `CS(=O)(=O)N1C[C@@H]2C[C@H]1CN2c1ccc(Nc2nccc(-c3ccc(N4CCOCC4)nc3)n2)cc1Cl` [compound 257, 4-(6-(morpholin-4-yl)pyridin-3-yl)-N-(3-chloro-4-((1S,4S)-5-(methylsulfonyl)-2,5-diazabicyclo[2.2.1]heptan-2-yl)phenyl)pyrimidin-2-amine], < 1000 nM. For the compound `CS(=O)(=O)N1C[C@@H]2C[C@H]1CN2c1ccc(Nc2nccc(-c3ccc(OC4CCOCC4)nc3)n2)cc1Cl` [compound 258, 4-(6-(tetrahydropyran-4-yloxy)pyridin-3-yl)-N-(3-chloro-4-((1S,4S)-5-(methylsulfonyl)-2,5-diazabicyclo[2.2.1]heptan-2-yl)phenyl)pyrimidin-2-amine], the GI50 lay in the range of 1000 to 10000 nM. As to `CC(=O)N1C[C@@H]2C[C@H]1CN2c1ccc(Nc2nccc(-c3ccc(N4CCOCC4)nc3)n2)cc1Cl` [compound 259, 4-(6-(morpholin-4-yl)pyridin-3-yl)-N-(3-chloro-4-((1S,4S)-5-acetyl-2,5-diazabicyclo[2.2.1]heptan-2-yl)phenyl)pyrimidin-2-amine], the GI50 is < 1000 nM. Take `CC(=O)N1C[C@@H]2C[C@H]1CN2c1ccc(Nc2nccc(-c3ccc(OC4CCOCC4)nc3)n2)cc1Cl` [compound 260, 4-(6-(tetrahydropyran-4-yloxy)pyridin-3-yl)-N-(3-chloro-4-((1S,4S)-5-acetyl-2,5-diazabicyclo[2.2.1]heptan-2-yl)phenyl)pyrimidin-2-amine]: the GI50 lay in the range of 1000 to 10000 nM.

With `Cc1cc(Nc2nccc(-c3ccc(OC4CCOCC4)nc3)n2)ccc1N1C[C@@H]2C[C@H]1CN2C` [compound 261, 4-(6-(tetrahydropyran-4-yloxy)pyridin-3-yl)-N-(3-methyl-4-((1S,4S)-5-methyl-2,5-diazabicyclo[2.2.1]heptan-2-yl)phenyl)pyrimidin-2-amine], the GI50 was < 1000 nM. In the case of `Cc1cc(Nc2nccc(-c3ccc(OC4CCOCC4)nc3)n2)ccc1N1C[C@@H]2C[C@H]1CN2C1CCCC1` [compound 262, 4-(6-(tetrahydropyran-4-yloxy)pyridin-3-yl)-N-(3-methyl-4-((1S,4S)-5-cyclopentyl-2,5-diazabicyclo[2.2.1]heptan-2-yl)phenyl)pyrimidin-2-amine] it was < 1000 nM; in that of `CC(C)N1C[C@@H]2C[C@H]1CN2c1ccc(Nc2nccc(-c3ccc(N4CCOCC4)nc3)n2)cc1Cl` [compound 263, 4-(6-(morpholin-4-yl)pyridin-3-yl)-N-(3-chloro-4-((1S,4S)-5-(1-methylethyl)-2,5-diazabicyclo[2.2.1]heptan-2-yl)phenyl)pyrimidin-2-amine], < 1000 nM.
